Experiments:
143B cells = experiment: MTT cytotoxicity assay, 72 h; assay type: cell-based, human; settings: Homo sapiens, 72 h, p53 mt, read-out: IC50 (mean ± SE) after 72 h continuous exposure
Method: (§1) Cells in a subconfluent phase are transferred to 96-well microtitre plates. L1210 cells are plated at a density of 1000 cells/well in 100 μl medium, while all other cell lines are plated at a density of 2000-25000 cells/well. The cells are left for 24 h prior to treatment to ensure exponential growth has been achieved, 24 h after plating (day 0), 100 μl of phosphatase inhibitor is added to each well, control wells received 100 μl of medium only. Drug exposure time is 72 h (day 3). The effect of phosphatase inhibition is tested in triplicate over a concentration range of […]−1×10^−8 M. Growth inhibitory effects are evaluated using the MTT assay and absorbance read at […]. The IC50 is the drug concentration at which cell growth is 50% inhibited based on the difference of optical density on day 0 and day 3 of drug exposure. Cytotoxicity is evaluated using a spectrophotometric assay which determines the percentage of cell growth following exposure of the cells to various concentrations of the phosphatase inhibitors for a period of 72 hours. The subsequent dose response curve is used to calculate IC50 values (the drug concentration at which cell growth is 50% inhibited).
(§2) Anti-cancer screening of the protein phosphatase inhibitors is assessed using the MTT assay. This assay determines cell viability by the ability of mitochondrial dehydrogenase to produce formazan crystals from 3-(4,5-dimethylthiazol-2-yl)-2,5-diphenyltetrazolium bromide. The viable cell number/well is directly proportional to the production of formazan, which following solubilization, can be measured spectrophotometrically (540 nm). This technique is also used by the National Cancer Institute to screen for new anticancer agents.
(§3) As described herein a number of cantharidin analogues have been synthesised and tested for their anticancer activity in nine cancer cell lines using the MTT assay after 72 h exposure. These new analogues are shown in FIG. 2 and have been designated MK-1 through to MK-9.

ADDP cells = experiment: MTT cytotoxicity assay, 72 h; assay type: cell-based, human; settings: Homo sapiens, 72 h, p53 mt, read-out: IC50 (mean ± SE) after 72 h continuous exposure
Method: as §1, §2, §3

HCT116 cells [1] = experiment: MTT cytotoxicity assay, 72 h; assay type: cell-based, human; settings: Homo sapiens, HCT-116, 72 h; HCT116, p53 wt; read-out: IC50 (mean ± SE) after 72 h continuous exposure
Method: as §1, §2, §3

HL60 cells [2] = experiment: MTT cytotoxicity assay, 72 h; assay type: cell-based, human; settings: Homo sapiens, HL-60, 72 h; HL60, p53 nul; read-out: IC50 (mean ± SE) after 72 h continuous exposure
Method: as §1, §2, §3

HT29 cells [3] = experiment: MTT cytotoxicity assay, 72 h; assay type: cell-based, human; settings: Homo sapiens, HT-29, 72 h; HT29, p53 mt; read-out: IC50 (mean ± SE) after 72 h continuous exposure
Method: as §1, §2, §3

SW480 cells = experiment: MTT cytotoxicity assay, 72 h; assay type: cell-based, human; settings: Homo sapiens, 72 h; SW480, p53 mt; read-out: IC50 (mean ± SE) after 72 h continuous exposure
Method: as §1, §2, §3

WiDr cells = experiment: MTT cytotoxicity assay, 72 h; assay type: cell-based, human; settings: Homo sapiens, 72 h, p53 mt, read-out: IC50 (mean ± SE) after 72 h continuous exposure
Method: as §1, §2, §3

nine cancer cell lines = experiment: MTT cytotoxicity assay, 72 h, ranges over cell line panel; assay type: cell-based; settings: nine cell lines, read-out: IC50 range across all cell lines tested
Method: as §1, §2, §3

HCT116 cells [4] = experiment: Cell cycle analysis, flow cytometry of propidium iodide stained cells; assay type: cell-based, human
Method: (§4) The cells are fixed in 70% ethanol and stored at −20° C. until analysis is performed (1-2 weeks). After fixing, the cells are pelleted and incubated in PBS containing propidium iodide ([…]) and RNase A (200 mg/ml) for at least 30 min at room temperature. The samples (2×10^4 events) are analysed using a Becton Dickson FACScan, fluorescence is collected in fluorescence detector 2 (FL2), filter 575/30 nm band pass. Cell cycle distribution is assessed using Cell Quest software (Becton Dickson).
(§5) The ability of the protein phosphatase inhibitors to abrogate the G1 or G2 checkpoint of the cell cycle may be determined by cell cycle analysis using flow cytometry. Briefly, asynchronous cell cultures are harvested 18 h after 6 Gy irradiation and/or 12 h incubation with the protein phosphatase inhibitor. Depending upon the p53 status of the cell line, radiation treatment alone will induce arrest in either G1 and/or G2 phase of the cell cycle.
(§6) Data shown in Table 2 and FIG. 4 show the cell cycle response of L1210, HL60, HT29 and HCT116 cells to cantharidin and the new cantharidin analogues MK-2 and MK-4 after 12 h exposure. In summary, cantharidin and MK-2 produced a similar response and induced G2 arrest in all four cell lines tested. […] HL60 and HCT116 cells. […] The magnitude of the cell cycle arrest induced by these drugs directly correlated with their cytotoxicity in the respective cell lines. […] The cytotoxicity of the […]

HL60 cells [5] = experiment: as above; assay type: cell-based, human; settings: for Cell Cycle Distribution, G1 / Cell Cycle Distribution, G2 + M / Cell Cycle Distribution, S / Cell Cycle Distribution, sub G1 / Cell cycle remark: 12 h
Method: as §4, §5, §6

HT29 cells [6] = experiment: as above; assay type: cell-based, human; settings: for Cell Cycle Distribution, G1 / Cell Cycle Distribution, G2 + M / Cell Cycle Distribution, S / Cell Cycle Distribution, sub G1 / Cell cycle remark: 12 h
Method: as §4, §5, §6

Work on `C[C@@]12C(=O)OC(=O)[C@]1(C)[C@H]1CC[C@@H]2O1` [Cantharidin, exo.exo-2.3-dimethyl-7-oxobicyclo[2.2.1]heptane-2,3-dicarboxylic acid anhydride] yielded an IC50 (143B cells) of 10.2 ± 1.2 µM, an IC50 (ADDP cells) of 12 ± 0.8 µM and an IC50 (HCT116 cells [1]) of 12 µM. For the same molecule, the IC50 (HL60 cells [2]) was 13 µM, the IC50 (HT29 cells [3]) was 6.4 ± 0.7 µM and the IC50 (SW480 cells) was 17.5 µM. For the same molecule, the IC50 (WiDr cells) was 6.1 ± 0.5 µM, the IC50 (nine cancer cell lines) was 6.1 to 18 µM and the “Cell Cycle Distribution, G1” value (HCT116 cells [4]; HCT116, 1 μM, 12 h) was 39.9 percentage of total. The “Cell Cycle Distribution, G2 + M” value (HCT116 cells [4]; HCT116, 1 μM, 12 h) was 41.9 percentage of total, the “Cell Cycle Distribution, S” value (HCT116 cells [4]; HCT116, 1 μM, 12 h) was 17.2 percentage of total and the “Cell Cycle Distribution, sub G1” value (HCT116 cells [4]; HCT116, 1 μM, 12 h) was 2.2 percentage of total. For the same molecule, the “Cell Cycle Distribution, G1” value (HCT116 cells [4]; HCT116, 5 μM, 12 h) was 39.9 percentage of total, the “Cell Cycle Distribution, G2 + M” value (HCT116 cells [4]; HCT116, 5 μM, 12 h) was 41.8 percentage of total and the “Cell Cycle Distribution, S” value (HCT116 cells [4]; HCT116, 5 μM, 12 h) was 16.8 percentage of total. The “Cell Cycle Distribution, sub G1” value (HCT116 cells [4]; HCT116, 5 μM, 12 h) was 2.9 percentage of total, the “Cell Cycle Distribution, G1” value (HCT116 cells [4]; HCT116, 10 μM, 12 h) was 38.0 percentage of total and the “Cell Cycle Distribution, G2 + M” value (HCT116 cells [4]; HCT116, 10 μM, 12 h) was 42.0 percentage of total. The “Cell Cycle Distribution, S” value (HCT116 cells [4]; HCT116, 10 μM, 12 h) was 14.9 percentage of total, the “Cell Cycle Distribution, sub G1” value (HCT116 cells [4]; HCT116, 10 μM, 12 h) was 6.2 percentage of total and the “Cell Cycle Distribution, G1” value (HCT116 cells [4]; HCT116, 50 μM, 12 h) was 25.1 percentage of total. The “Cell Cycle Distribution, G2 + M” value (HCT116 cells [4]; HCT116, 50 μM, 12 h) was 48.1 percentage of total, the “Cell Cycle Distribution, S” value (HCT116 cells [4]; HCT116, 50 μM, 12 h) was 17.8 percentage of total and the “Cell Cycle Distribution, sub G1” value (HCT116 cells [4]; HCT116, 50 μM, 12 h) was 11.1 percentage of total. For the same molecule, the Cell cycle remark (HCT116 cells [4]; HCT116, 50 μM, 12 h) was “G2 arrest”, the “Cell cycle response” value (HCT116 cells [4]; HCT116, 12 h exposure) was “G2 arrest” and the “Cell Cycle Distribution, G1” value (HL60 cells [5]; HL60, 1 μM) was 44.0 percentage of total. For the same molecule, the “Cell Cycle Distribution, G2 + M” value (HL60 cells [5]; HL60, 1 μM) was 29.7 percentage of total, the “Cell Cycle Distribution, S” value (HL60 cells [5]; HL60, 1 μM) was 26.1 percentage of total and the “Cell Cycle Distribution, sub G1” value (HL60 cells [5]; HL60, 1 μM) was 1.5 percentage of total. The “Cell Cycle Distribution, G1” value (HL60 cells [5]; HL60, 5 μM) was 41.4 percentage of total, the “Cell Cycle Distribution, G2 + M” value (HL60 cells [5]; HL60, 5 μM) was 30.6 percentage of total and the “Cell Cycle Distribution, S” value (HL60 cells [5]; HL60, 5 μM) was 27.7 percentage of total. For the same molecule, the “Cell Cycle Distribution, sub G1” value (HL60 cells [5]; HL60, 5 μM) was 1.7 percentage of total, the “Cell Cycle Distribution, G1” value (HL60 cells [5]; HL60, 10 μM) was 41.8 percentage of total and the “Cell Cycle Distribution, G2 + M” value (HL60 cells [5]; HL60, 10 μM) was 30.4 percentage of total. The “Cell Cycle Distribution, S” value (HL60 cells [5]; HL60, 10 μM) was 27.5 percentage of total, the “Cell Cycle Distribution, sub G1” value (HL60 cells [5]; HL60, 10 μM) was 1.7 percentage of total and the Cell cycle remark (HL60 cells [5]; HL60, 10 μM) was “G2 arrest”. The “Cell Cycle Distribution, G1” value (HL60 cells [5]; HL60, 50 μM) was 16.2 percentage of total, the “Cell Cycle Distribution, G2 + M” value (HL60 cells [5]; HL60, 50 μM) was 34.7 percentage of total and the “Cell Cycle Distribution, S” value (HL60 cells [5]; HL60, 50 μM) was 31.6 percentage of total. For the same molecule, the “Cell Cycle Distribution, sub G1” value (HL60 cells [5]; HL60, 50 μM) was 19.3 percentage of total, the Cell cycle remark (HL60 cells [5]; HL60, 50 μM) was “Cell Death” and the “Cell cycle response” value (HL60 cells [5]; HL60, 12 h exposure) was “G2 arrest”. The “Cell Cycle Distribution, G1” value (HT29 cells [6]; HT29, 1 μM) was 46.2 percentage of total, the “Cell Cycle Distribution, G2 + M” value (HT29 cells [6]; HT29, 1 μM) was 37.4 percentage of total and the “Cell Cycle Distribution, S” value (HT29 cells [6]; HT29, 1 μM) was 7.8 percentage of total. For the same molecule, the “Cell Cycle Distribution, sub G1” value (HT29 cells [6]; HT29, 1 μM) was 9.0 percentage of total, the “Cell Cycle Distribution, G1” value (HT29 cells [6]; HT29, 5 μM) was 47.4 percentage of total and the “Cell Cycle Distribution, G2 + M” value (HT29 cells [6]; HT29, 5 μM) was 39.8 percentage of total. The “Cell Cycle Distribution, S” value (HT29 cells [6]; HT29, 5 μM) was 9.3 percentage of total, the “Cell Cycle Distribution, sub G1” value (HT29 cells [6]; HT29, 5 μM) was 4.0 percentage of total and the “Cell Cycle Distribution, G1” value (HT29 cells [6]; HT29, 10 μM) was 42.7 percentage of total. The “Cell Cycle Distribution, G2 + M” value (HT29 cells [6]; HT29, 10 μM) was 40.3 percentage of total, the “Cell Cycle Distribution, S” value (HT29 cells [6]; HT29, 10 μM) was 14.6 percentage of total and the “Cell Cycle Distribution, sub G1” value (HT29 cells [6]; HT29, 10 μM) was 2.8 percentage of total. For the same molecule, the Cell cycle remark (HT29 cells [6]; HT29, 10 μM) was “G2 arrest”, the “Cell Cycle Distribution, G1” value (HT29 cells [6]; HT29, 50 μM) was 46.0 percentage of total and the “Cell Cycle Distribution, G2 + M” value (HT29 cells [6]; HT29, 50 μM) was 26.0 percentage of total. For the same molecule, the “Cell Cycle Distribution, S” value (HT29 cells [6]; HT29, 50 μM) was 14.7 percentage of total, the “Cell Cycle Distribution, sub G1” value (HT29 cells [6]; HT29, 50 μM) was 15.1 percentage of total and the Cell cycle remark (HT29 cells [6]; HT29, 50 μM) was “Cell Death”. For the same molecule, the “Cell cycle response” value (HT29 cells [6]; HT29, 12 h exposure) was “G2 arrest”.

From US20060030616A1, “Anhydride modified cantharidin analogues useful in the treatment of cancer” (priority 1998, published 2006)
